Assay results published in US8178506B2, “Oligomeric compounds and compositions for use in modulation of small non-coding RNAs” (Regulus Therapeutics Inc., priority 2003, dated 2012).

Legend:
DIO mice = assay: Diet-induced obesity (DIO) mice; format: in vivo; conditions: 25 mg/kg s.c. twice weekly
[1] = system: bulged mir-143 target sequence; assay: pGL3-bulge(×3) luciferase assay in HeLa cells; format: cell-based, human; conditions: 24 hours; for luciferase activity from pGL3-bulge(×3): HeLa, 11, 33 and 100 nM; for luciferase expression: HeLa cells
Protocol: An expression system based on the pGL3-Control (Promega Corp., Madison Wis.) reporter vector and comprising predicted miRNA binding sites was used in transient transfections of HeLa cells with plasmids expressing oligomeric compounds mimicking miRNAs, pre-miRNAs or pri-miRNAs in order to assess the ability of these miRNA mimics to bind and regulate the expression of the luciferase reporter. The effect of increasing the copy number of the miRNA-binding site in the target was also tested by including multiple binding sites in artificial reporter constructs. It is understood that the presence of multiple miRNA-binding sites in a target can include binding sites for different miRNAs.
The following reporter plasmids were constructed by cloning the specified fragment into the XbaI site of the pGL3-control plasmid, placing the potential miRNA-binding site in the 3′-UTR of the luciferase reporter: The reporter plasmid pGL3-bulge(×3) contains three contiguous copies of the sequence ([…]; herein incorporated as SEQ ID NO: 874) which represents a sequence complementary to the mir-143 miRNA except that it is missing 2 nucleotides such that the mir-143 miRNA is presumed to adopt a bulged structure when it hybridizes to this target sequence. The pGL3-GLO1 reporter plasmid contains a DNA fragment comprising the 3′-UTR of the GLO1 sequence; this fragment was PCR-amplified using a primer beginning at nucleotide number 621 of the GLO1 sequence (GenBank Accession NM_006708.1, SEQ ID NO: 821) and the downstream primer hybridizing to the poly A tail. The pGL3-PP2A reporter plasmid contains a DNA fragment comprising the 3′-UTR of the PP2A gene; this fragment was PCR-amplified using a primer beginning at nucleotide number 921 of the PP2A sequence (GenBank Accession NM_004156.1) and the downstream primer hybridizing to the poly A tail. The reporter plasmid pGL3-ERK5-3′-UTR(×1) contains one copy of the sequence […] (herein incorporated as SEQ ID NO: 875), found in the 3′-UTR of ERK5 and predicted by Lewis, et al. to be bound by the mir-143 miRNA, and the reporter plasmid pGL3-ERK5-3′UTR(×3) has three contiguous copies of this sequence. The reporter plasmid pGL3-ERK5-3′UTR(ext) contains one copy of the sequence […] (herein incorporated as SEQ ID NO: 876), which includes an additional ten nucleotides at either end of the mir-143 binding site in 3′-UTR of ERK5 predicted by Lewis, et al. (Lewis et al., Cell, 2003, 115, 787-798). The plasmids pGL3-ERK5-cds(×1), pGL3-ERK5-cds(×2), pGL3-ERK5-cds(×3), and pGL3-ERK5-cds(×5) contain one, two, three or five contiguous copies, respectively, of the novel mir-143 binding site ([…]; herein incorporated as SEQ ID NO: 877) we identified within the coding sequence of ERK5. The unmodified pGL3-Control luciferase reporter vector was used as a negative control, and the pGL3-mir-143 sensor reporter plasmid was used as a positive control.
HeLa cells were routinely cultured and passaged as described. In some embodiments, HeLa cells were transfected with 0.05 μg of the relevant pGL3-sensor plasmid and 0.01 μg pRL-CMV plasmid. Additionally, in some embodiments, cells were treated at various dosages (11 nM, 33 nM, and 100 nM) with the following oligomeric compound mimics: 1) ds-mir-143, or 2) ds-Control as described. In accordance with methods described in Example 12, a luciferase assay was performed 24-hours after transfection. The results, shown in Tables 40 and 41, are an average of three trials. Data are presented as percent untreated control (luciferase plasmid only, not treated with oligomeric compound) luciferase expression, normalized to pRL-CMV levels.

mir-143 binding sites = assay: pGL3-mir-143 sensor luciferase assay in HeLa cells; format: cell-based, human; conditions: Table 41, pGL3-mir-143 sensor, 24 hours

“CTAGTGGTCCTAAACATTTCAC (chemistry not given here) [ISIS 327878, uniform 2′-MOE PS; targets mir-203]” was tested, and the “liver toxicity (plasma transaminase levels, weekly)” value (DIO mice) was “did not appear to cause liver toxicity”.

With “ds-mir-143: double-stranded RNA of ISIS 342199 hybridized to its perfect complement ISIS 342200 (sense UGAGAUGAAGCACUGUAGCUCA; antisense UGAGCUACAGUGCUUCAUCUCA; RNA, backbone not given here)” the “luciferase activity from pGL3-bulge(×3)” value [1] was “dose-dependent inhibition of luciferase activity”, the “luciferase activity from pGL3-bulge(×3)” value ([1]; listed as mir-143 dsRNA mimic compound) was “inhibited luciferase activity from the pGL3-bulge(×3) sensor plasmid in a dose-dependent manner” and the luciferase expression ([1]; Table 40, pGL3-bulge(x3), 11 nM) was 50.7 percent untreated control. For the same substance, the luciferase expression ([1]; Table 40, pGL3-bulge(x3), 33 nM) was 35.4 percent untreated control, the luciferase expression ([1]; Table 40, pGL3-bulge(x3), 100 nM) was 17.2 percent untreated control and the luciferase expression ([1]; Table 41, pGL3-bulge(x3), 11 nM) was 36.1 percent untreated control. The luciferase expression ([1]; Table 41, pGL3-bulge(x3), 33 nM) was 33.9 percent untreated control, the luciferase expression ([1]; Table 41, pGL3-bulge(x3), 100 nM) was 22.2 percent untreated control and the luciferase expression (mir-143 binding sites; 11 nM) was 15.0 percent untreated control. For the same substance, the luciferase expression (mir-143 binding sites; 33 nM) was 15.0 percent untreated control and the luciferase expression (mir-143 binding sites; 100 nM) was 11.1 percent untreated control.
